Results reported in PubChem BioAssay (NCI).
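Cells were grown in 96-well plates and exposed to each compound for 48 hours at five concentrations; endpoints were interpolated linearly between bracketing concentrations, or set to the highest concentration if not reached. TGI marks complete inhibition of growth.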

Assays:
Experiment in all cases: NCI-60 cell line screen, 48 h
[1] = tested on: 786-0 renal
[2] = tested on: A498 renal
[3] = tested on: A549 NSCLC
[4] = tested on: ACHN renal
[5] = tested on: BT-549 breast
[6] = tested on: CAKI-1 renal
[7] = tested on: CCRF-CEM leukemia
[8] = tested on: COLO 205 colon
[9] = tested on: DU-145 prostate
[10] = tested on: EKVX NSCLC
[11] = tested on: HCC-2998 colon
[12] = tested on: HCT-116 colon
[13] = tested on: HCT-15 colon
[14] = tested on: HL-60(TB) leukemia
[15] = tested on: HOP-62 NSCLC
[16] = tested on: HOP-92 NSCLC
[17] = tested on: HS 578T breast
[18] = tested on: HT29 colon
[19] = tested on: IGROV1 ovarian
[20] = tested on: K-562 leukemia
[21] = tested on: KM12 colon
[22] = tested on: M14 melanoma
[23] = tested on: MCF7 breast
[24] = tested on: MDA-MB-231 breast
[25] = tested on: MDA-MB-435
[26] = tested on: MOLT-4 leukemia
[27] = tested on: NCI-H226 lung
[28] = tested on: NCI-H23 lung
[29] = tested on: NCI-H460 lung
[30] = tested on: NCI-H522 lung
[31] = tested on: NCI/ADR-RES ovarian
[32] = tested on: OVCAR-3 ovarian
[33] = tested on: OVCAR-4 ovarian
[34] = tested on: OVCAR-5 ovarian
[35] = tested on: OVCAR-8 ovarian
[36] = tested on: PC-3 prostate
[37] = tested on: RPMI-8226 leukemia
[38] = tested on: RXF 393 renal
[39] = tested on: SF-268 CNS
[40] = tested on: SF-295 CNS
[41] = tested on: SF-539 CNS
[42] = tested on: SK-MEL-2 melanoma
[43] = tested on: SK-MEL-28 melanoma
[44] = tested on: SK-MEL-5 melanoma
[45] = tested on: SK-OV-3 ovarian
[46] = tested on: SN12C renal
[47] = tested on: SNB-19 CNS
[48] = tested on: SNB-75 CNS
[49] = tested on: SR leukemia
[50] = tested on: SW-620 colon
[51] = tested on: T-47D breast
[52] = tested on: TK-10 renal
[53] = tested on: U251 CNS
[54] = tested on: UACC-257 melanoma
[55] = tested on: UACC-62 melanoma
[56] = tested on: UO-31 renal
[57] = tested on: LOX IMVI melanoma

Q: With CCCCCCCCCCCCc1ccsc1-c1ccc(-c2ccc(-c3sc(-c4cc(CCCCCCCCCCCC)c(-c5ccc(-c6ccc(-c7sccc7CCCCCCCCCCCC)s6)s5)s4)cc3CCCCCCCCCCCC)s2)s1 as the compound, how does the TGI [1] read?
A: > 100 µM

Q: And the TGI [2]?
A: > 100 µM

Q: And the TGI [3]?
A: > 100 µM

Q: What about the TGI [4] of the same compound?
A: > 100 µM

Q: What about the TGI [5] of the same compound?
A: > 100 µM

Q: And the TGI [6]?
A: > 100 µM

Q: And the TGI [7]?
A: > 100 µM

Q: And the TGI [8]?
A: > 100 µM

Q: What about the TGI [9] of the same compound?
A: > 100 µM

Q: And the TGI [10]?
A: > 100 µM

Q: What about the TGI [11] of the same compound?
A: > 100 µM

Q: What about the TGI [12] of the same compound?
A: > 100 µM

Q: What about the TGI [13] of the same compound?
A: > 100 µM

Q: And the TGI [14]?
A: > 100 µM

Q: What about the TGI [15] of the same compound?
A: > 100 µM

Q: And the TGI [16]?
A: > 100 µM

Q: And the TGI [17]?
A: > 100 µM

Q: And the TGI [18]?
A: > 100 µM

Q: And the TGI [19]?
A: > 100 µM

Q: And the TGI [20]?
A: > 100 µM

Q: What about the TGI [21] of the same compound?
A: > 100 µM

Q: And the TGI [22]?
A: > 100 µM

Q: What about the TGI [23] of the same compound?
A: > 100 µM

Q: And the TGI [24]?
A: > 100 µM

Q: And the TGI [25]?
A: > 100 µM

Q: And the TGI [26]?
A: > 100 µM

Q: What about the TGI [27] of the same compound?
A: > 100 µM

Q: And the TGI [28]?
A: > 100 µM

Q: And the TGI [29]?
A: > 100 µM

Q: And the TGI [30]?
A: > 100 µM

Q: And the TGI [31]?
A: > 100 µM

Q: And the TGI [32]?
A: > 100 µM

Q: What about the TGI [33] of the same compound?
A: > 100 µM

Q: And the TGI [34]?
A: > 100 µM

Q: What about the TGI [35] of the same compound?
A: > 100 µM

Q: What about the TGI [36] of the same compound?
A: > 100 µM

Q: What about the TGI [37] of the same compound?
A: > 100 µM

Q: And the TGI [38]?
A: > 100 µM

Q: And the TGI [39]?
A: > 100 µM

Q: What about the TGI [40] of the same compound?
A: > 100 µM

Q: What about the TGI [41] of the same compound?
A: > 100 µM

Q: And the TGI [42]?
A: > 100 µM

Q: And the TGI [43]?
A: > 100 µM

Q: What about the TGI [44] of the same compound?
A: > 100 µM

Q: What about the TGI [45] of the same compound?
A: > 100 µM

Q: And the TGI [46]?
A: > 100 µM

Q: And the TGI [47]?
A: > 100 µM

Q: And the TGI [48]?
A: > 100 µM

Q: And the TGI [49]?
A: 75.2 µM

Q: And the TGI [50]?
A: > 100 µM

Q: And the TGI [51]?
A: > 100 µM

Q: And the TGI [52]?
A: > 100 µM

Q: And the TGI [53]?
A: > 100 µM

Q: What about the TGI [54] of the same compound?
A: > 100 µM

Q: What about the TGI [55] of the same compound?
A: > 100 µM

Q: What about the TGI [56] of the same compound?
A: > 100 µM

Q: For O=C(Nc1ccc(Cl)cc1)c1cc2c(cc1Cl)SC(NNCCO)=NS2(=O)=O, which TGI [1] is on record?
A: > 100 µM

Q: And the TGI [2]?
A: > 100 µM

Q: And the TGI [4]?
A: > 100 µM

Q: What about the TGI [5] of the same compound?
A: > 100 µM

Q: What about the TGI [6] of the same compound?
A: > 100 µM

Q: And the TGI [7]?
A: > 100 µM

Q: What about the TGI [8] of the same compound?
A: > 100 µM

Q: And the TGI [9]?
A: > 100 µM

Q: What about the TGI [10] of the same compound?
A: > 100 µM

Q: What about the TGI [11] of the same compound?
A: > 100 µM

Q: What about the TGI [12] of the same compound?
A: > 100 µM

Q: And the TGI [13]?
A: > 100 µM

Q: And the TGI [14]?
A: > 100 µM

Q: And the TGI [15]?
A: > 100 µM

Q: And the TGI [16]?
A: > 100 µM

Q: What about the TGI [17] of the same compound?
A: > 100 µM

Q: What about the TGI [18] of the same compound?
A: > 100 µM

Q: And the TGI [19]?
A: > 100 µM

Q: And the TGI [20]?
A: > 100 µM

Q: And the TGI [21]?
A: > 100 µM

Q: And the TGI [57]?
A: > 100 µM

Q: What about the TGI [22] of the same compound?
A: > 100 µM

Q: What about the TGI [23] of the same compound?
A: > 100 µM

Q: What about the TGI [24] of the same compound?
A: > 100 µM

Q: What about the TGI [25] of the same compound?
A: > 100 µM

Q: And the TGI [26]?
A: > 100 µM

Q: And the TGI [27]?
A: > 100 µM

Q: What about the TGI [28] of the same compound?
A: > 100 µM

Q: And the TGI [29]?
A: > 100 µM

Q: And the TGI [31]?
A: > 100 µM

Q: And the TGI [33]?
A: > 100 µM

Q: What about the TGI [35] of the same compound?
A: > 100 µM

Q: And the TGI [36]?
A: > 100 µM

Q: What about the TGI [37] of the same compound?
A: > 100 µM

Q: And the TGI [38]?
A: > 100 µM

Q: What about the TGI [39] of the same compound?
A: > 100 µM

Q: And the TGI [40]?
A: > 100 µM

Q: And the TGI [41]?
A: > 100 µM

Q: What about the TGI [42] of the same compound?
A: > 100 µM

Q: What about the TGI [43] of the same compound?
A: > 100 µM

Q: What about the TGI [44] of the same compound?
A: > 100 µM

Q: What about the TGI [45] of the same compound?
A: > 100 µM

Q: What about the TGI [47] of the same compound?
A: > 100 µM

Q: What about the TGI [48] of the same compound?
A: > 100 µM

Q: What about the TGI [49] of the same compound?
A: > 100 µM

Q: And the TGI [50]?
A: > 100 µM

Q: What about the TGI [51] of the same compound?
A: > 100 µM

Q: And the TGI [52]?
A: > 100 µM

Q: And the TGI [53]?
A: > 100 µM

Q: What about the TGI [54] of the same compound?
A: > 100 µM

Q: And the TGI [55]?
A: > 100 µM

Q: What about the TGI [56] of the same compound?
A: > 100 µM
